Patent publication US5776944A, “7-(4-aminomethyl-3-methyloxyiminopyrroplidin-1-yl)-1-cyclopropyl-6-flu oro-4-oxo-1,4-dihydro-1,8-naphthyridine-3-carboxylic acid and the process for the preparation thereof” (LG Chemical Ltd., priority 1994, dated 1998)
In brackets after ≈: the same amount, converted by molar mass. Like-named read-outs stand apart in the source and are kept apart here.

What was measured:
Assay type in all cases: cell-based
Escherichia coli 3190Y = assay: In vitro antibacterial activity (MIC, agar dilution), Biological Example 1; conditions: 18 h, Table 25, read-out: Minimum Inhibitory Concentration
[1] = test system: Staphylococcus epidermidis 178; assay: as above; conditions: 18 h; Staphylococcus epidermidis 178, Table 25; read-out: Minimum Inhibitory Concentration
[2] = test system: Staphylococcus aureus 241; assay: as above; conditions: 18 h; Staphylococcus aureus 241, Table 25; read-out: Minimum Inhibitory Concentration
[3] = test system: Pseudomonas aeruginosa 10145; assay: as above; conditions: 18 h; Pseudomonas aeruginosa 10145, Table 25; read-out: Minimum Inhibitory Concentration
Escherichia coli 10536 = assay: as above; conditions: read-out: Minimum Inhibitory Concentration
Bacillus subtilis 6633 = assay: as above; conditions: 18 h; Bacillus subtilis 6633, Table 25; read-out: Minimum Inhibitory Concentration
[4] = test system: Acinetobacter calcoaceticus 15473; assay: as above; conditions: read-out: Minimum Inhibitory Concentration
[5] = test system: Escherichia coli TEM9 2639E; assay: microbe, parasite or virus in culture; conditions: TEM92639E, 18 h, read-out: Minimum Inhibitory Concentration
Micrococcus luteus 9341 = assay: In vitro antibacterial activity (MIC, agar dilution), Biological Example 1; conditions: 18 h; Micrococcus luteus 9341, Table 25; read-out: Minimum Inhibitory Concentration
[6] = test system: Staphylococcus epidermidis 887E; assay: as above; conditions: 18 h, Table 25, read-out: Minimum Inhibitory Concentration
[7] = test system: Pseudomonas aeruginosa 1912E; assay: as above; conditions: 18 h, read-out: Minimum Inhibitory Concentration
Staphylococcus aureus 77 = assay: as above; conditions: 18 h; Staphylococcus aureus 77, Table 25; read-out: Minimum Inhibitory Concentration
[8] = test system: Salmonella typimurium 14028; assay: as above; conditions: 18 h; Salmonella typimurium 14028, Table 25; read-out: Minimum Inhibitory Concentration
Enterobacter cloacae P99 = assay: microbe, parasite or virus in culture; conditions: P99, 18 h, read-out: Minimum Inhibitory Concentration
[9] = test system: Klebsiella aerogenes 1082E; assay: In vitro antibacterial activity (MIC, agar dilution), Biological Example 1; conditions: 18 h, Table 25, read-out: Minimum Inhibitory Concentration
[10] = test system: Klebsiella aerogenes 1976E; assay: as above; conditions: 18 h, Table 25, read-out: Minimum Inhibitory Concentration
[11] = test system: Streptococcus faecalis 29212; assay: as above; conditions: Enterococcus faecalis, 18 h; Streptococcus faecalis 29212, Table 25; read-out: Minimum Inhibitory Concentration
[12] = test system: Citrobacter diversus 2046E; assay: as above; conditions: Citrobacter koseri, 18 h, Table 25, read-out: Minimum Inhibitory Concentration
[13] = test system: Escherichia coli TEM3 3455E; assay: microbe, parasite or virus in culture; conditions: TEM33455E, 18 h, read-out: Minimum Inhibitory Concentration
[14] = test system: Escherichia coli TEM5 3739E; assay: microbe, parasite or virus in culture; conditions: TEM53739E, 18 h, read-out: Minimum Inhibitory Concentration
[15] = test system: Enterobacter cloacae 1194E; assay: microbe, parasite or virus in culture; conditions: 18 h, read-out: Minimum Inhibitory Concentration
Escherichia coli 851E = assay: In vitro antibacterial activity (MIC, agar dilution), Biological Example 1; conditions: 18 h, Table 25, read-out: Minimum Inhibitory Concentration
[16] = test system: Staphylococcus aureus giorgio; assay: as above; conditions: 18 h, Table 25, read-out: Minimum Inhibitory Concentration
[17] = test system: Staphylococcus aureus 6538p; assay: as above; conditions: 18 h, Table 25, read-out: Minimum Inhibitory Concentration
[18] = 18 h, Escherichia coli 10536, Table 25
[19] = 18 h, Acinetobacter calcoaceticus 15473, Table 25
[20] = Pseudomonas aeruginosa 1912E, Table 25

Row | Structure (SMILES) | MIC (Escherichia coli 3190Y) [µg/mL] | MIC [1] [µg/mL] | MIC [2] [µg/mL] | MIC [3] [µg/mL] | MIC (Bacillus subtilis 6633) [µg/mL] | MIC [5] [µg/mL] | MIC (Micrococcus luteus 9341) [µg/mL] | MIC [6] [µg/mL] | MIC (Staphylococcus aureus 77) [µg/mL] | MIC [8] [µg/mL] | MIC (Enterobacter cloacae P99) [µg/mL] | MIC [9] [µg/mL] | MIC [10] [µg/mL] | MIC [11] [µg/mL] | MIC [12] [µg/mL] | MIC [13] [µg/mL] | MIC [14] [µg/mL] | MIC [15] [µg/mL] | MIC (Escherichia coli 851E) [µg/mL] | MIC [16] [µg/mL] | further results
1 | NCC1CN(c2cc3c(cc2F)c(=O)c(C(=O)O)cn3C2CC2)CC1=NOCc1ccccc1 (stereo not drawn) [Example 12, 7-(4-animomethyl-3-benzyloxyimino-pyrrolidin-1-yl)-1-cyclcopropyl-6-fluoro-1,4-dihydro-4-oxoquinoline-3-carboxylic acid] | 0.016 (≈ 0.0344 µM) | 0.5 (≈ 1.08 µM) | 1 (≈ 2.15 µM) | 0.5 (≈ 1.08 µM) | ≤ 0.008 | 0.25 (≈ 0.538 µM) | 0.13 (≈ 0.28 µM) | ≤ 0.008 | ≤ 0.008 | 0.25 (≈ 0.538 µM) | 0.063 (≈ 0.136 µM) | 0.13 (≈ 0.28 µM) | 1 (≈ 2.15 µM) | 0.031 (≈ 0.0667 µM) | 0.13 (≈ 0.28 µM) | 0.5 (≈ 1.08 µM) | 0.25 (≈ 0.538 µM) | 0.13 (≈ 0.28 µM) | 0.063 (≈ 0.136 µM) | ≤ 0.008 | MIC (Escherichia coli 10536; [18]): ≤ 0.008 µg/mL; MIC [4, 19]: 0.016 µg/mL (≈ 0.0344 µM); MIC [7, 20]: 2 µg/mL (≈ 4.31 µM); MIC [17]: ≤ 0.008 µg/mL
2 | CON=C1CN(c2cc3c(cc2F)c(=O)c(C(=O)O)cn3C2CC2)CC1CN (stereo not drawn) [Example 179, 7-(4-aminomethyl-3-methoxyiminopyrrolidin-1-yl)-1-cyclopronyl-6-fluoro-4-oxo-1,4-dihydroquinoline-3-carboxylic acid] | ≤ 0.008 | 2 (≈ 5.15 µM) | 2 (≈ 5.15 µM) | 0.25 (≈ 0.644 µM) | ≤ 0.008 | 0.031 (≈ 0.0798 µM) | 0.13 (≈ 0.335 µM) | 0.016 (≈ 0.0412 µM) | 0.031 (≈ 0.0798 µM) | 0.063 (≈ 0.162 µM) | 0.008 (≈ 0.0206 µM) | 0.031 (≈ 0.0798 µM) | 0.13 (≈ 0.335 µM) | 0.031 (≈ 0.0798 µM) | 0.031 (≈ 0.0798 µM) | 0.13 (≈ 0.335 µM) | 0.063 (≈ 0.162 µM) | 0.031 (≈ 0.0798 µM) | ≤ 0.008 | 0.016 (≈ 0.0412 µM) | MIC (Escherichia coli 10536; Escherichia coli, 10536, 18 h): < 0.008 µg/mL; MIC ([4]; Acinetobacter calcoaceticus, 15473, 18 h): 0.016 µg/mL (≈ 0.0412 µM); MIC ([7]; Pseudomonas aeruginosa, 1912E): 0.25 µg/mL (≈ 0.644 µM); MIC [17]: ≤ 0.008 µg/mL
3 | CC1COc2c(N3CCN(C)CC3)c(F)cc3c(=O)c(C(=O)O)cn1c23 (stereo not drawn) [OFLX, ofloxacin, reference compound] | 0.016 (≈ 0.0443 µM) | 32 (≈ 88.6 µM) | 64 (≈ 177 µM) | 2 (≈ 5.53 µM) | 0.063 (≈ 0.174 µM) | 0.063 (≈ 0.174 µM) | 2 (≈ 5.53 µM) | 0.25 (≈ 0.692 µM) | 0.25 (≈ 0.692 µM) | 0.13 (≈ 0.36 µM) | ≤ 0.008 | 0.063 (≈ 0.174 µM) | 0.25 (≈ 0.692 µM) | 2 (≈ 5.53 µM) | 0.063 (≈ 0.174 µM) | 0.5 (≈ 1.38 µM) | 0.5 (≈ 1.38 µM) | 0.063 (≈ 0.174 µM) | 0.063 (≈ 0.174 µM) | 0.25 (≈ 0.692 µM) | MIC (Escherichia coli 10536; [18]): 0.031 µg/mL (≈ 0.0858 µM); MIC [4, 19]: 0.25 µg/mL (≈ 0.692 µM); MIC ([7]; Pseudomonas aeruginosa, 1912E): 0.5 µg/mL (≈ 1.38 µM); MIC [17]: 0.25 µg/mL (≈ 0.692 µM)
4 | NCC1CN(c2c(F)c(N)c3c(=O)c(C(=O)O)cn(C4CC4)c3c2F)CC1=NOCc1ccccc1 (stereo not drawn) [Example 56, 5-amino-7-(4-aminomethyl-3-benzyloxylmino-pyrrolidin-1-yl)-1-cyclopropyl6,8-difluoro-1,4-dihydro-4-oxoquinoline-3-carboxylic acid] | ≤ 0.008 | 2 (≈ 4.02 µM) | 2 (≈ 4.02 µM) | 2 (≈ 4.02 µM) | ≤ 0.008 | 0.063 (≈ 0.127 µM) | 0.063 (≈ 0.127 µM) | ≤ 0.008 | ≤ 0.008 | 0.031 (≈ 0.0623 µM) | ≤ 0.008 | 0.016 (≈ 0.0322 µM) | 0.5 (≈ 1.01 µM) | 0.016 (≈ 0.0322 µM) | 0.016 (≈ 0.0322 µM) | 0.5 (≈ 1.01 µM) | 0.25 (≈ 0.503 µM) | 0.031 (≈ 0.0623 µM) | ≤ 0.008 | ≤ 0.008 | MIC (Escherichia coli 10536; [18]): ≤ 0.008 µg/mL; MIC [4, 19]: ≤ 0.008 µg/mL; MIC [7, 20]: 2 µg/mL (≈ 4.02 µM); MIC [17]: ≤ 0.008 µg/mL
5 | C#CCCON=C1CN(c2nc3c(cc2F)c(=O)c(C(=O)O)cn3C2CC2)CC1CN (stereo not drawn) [Example 104] | ≤ 0.008 | 4 (≈ 9.36 µM) | 8 (≈ 18.7 µM) | 1 (≈ 2.34 µM) | ≤ 0.008 | 0.031 (≈ 0.0725 µM) | 0.13 (≈ 0.304 µM) | 0.016 (≈ 0.0374 µM) | ≤ 0.008 | 0.031 (≈ 0.0725 µM) | 0.016 (≈ 0.0374 µM) | 0.031 (≈ 0.0725 µM) | 0.13 (≈ 0.304 µM) | 0.031 (≈ 0.0725 µM) | ≤ 0.008 | 0.25 (≈ 0.585 µM) | 0.13 (≈ 0.304 µM) | ≤ 0.008 | ≤ 0.008 | ≤ 0.008 | MIC (Escherichia coli 10536; [18]): ≤ 0.008 µg/mL; MIC [4, 19]: ≤ 0.008 µg/mL; MIC [7, 20]: 1 µg/mL (≈ 2.34 µM); MIC [17]: ≤ 0.008 µg/mL
6 | C#CCON=C1CN(c2nc3c(cc2F)c(=O)c(C(=O)O)cn3C2CC2)CC1CN (stereo not drawn) [Example 103] | ≤ 0.008 | 4 (≈ 9.68 µM) | 4 (≈ 9.68 µM) | 0.5 (≈ 1.21 µM) | ≤ 0.008 | 0.031 (≈ 0.075 µM) | 0.13 (≈ 0.314 µM) | ≤ 0.008 | ≤ 0.008 | 0.031 (≈ 0.075 µM) | ≤ 0.008 | 0.031 (≈ 0.075 µM) | 0.063 (≈ 0.152 µM) | 0.031 (≈ 0.075 µM) | 0.13 (≈ 0.314 µM) | 0.13 (≈ 0.314 µM) | 0.063 (≈ 0.152 µM) | 0.016 (≈ 0.0387 µM) | ≤ 0.008 | ≤ 0.008 | MIC (Escherichia coli 10536; [18]): ≤ 0.008 µg/mL; MIC [4, 19]: 0.031 µg/mL (≈ 0.075 µM); MIC [7, 20]: 0.5 µg/mL (≈ 1.21 µM); MIC [17]: ≤ 0.008 µg/mL
